Experimental data from patent US7700587B2, “Haloperidol analogs” (Florida A&M University, priority 2004, dated 2010).

Experiments:
[1] = test system: Swiss male mice; assay: Apomorphine induced climbing-stereotypy; type: in vivo; conditions: for inhibition of apomorphine induced climbing (dopamine receptor antagonist in vivo): intraperitoneal, apomorphine challenge
[2] = test system: Male SD rats; assay: Bar test for catalepsy; type: in vivo; conditions: for statistical comparison of effects in catalepsy bar test (t-test, p<0.05): all four doses; for catalepsy (EPS) in bar test: subcutaneous, at the doses used
Experimental: Bar test for catalepsy: A modified bar test by Needham et al, supra was used. […] Catalepsy severity was assessed immediately at various time points (15, 30, 45, 60, and 90 min) post injection, by scoring how long the rat maintained both forepaws motionless on a horizontal metal bar (1.1 cm in diameter, 10 cm above the bench top in a box). A score of 1 was given for every 5 seconds (2 min. maximum) the animal remained on the bar. Mean scores from 5 animals per time point were recorded for catalepsy and plotted in FIG. 2.
Statistical analysis: The student t-test was used to compare the three compounds used in the animal behavioral tests. Results were considered significant at p<0.05.

## O=C(CCCN1CCC(O)(c2ccc(Cl)cc2)CC1)c1ccc(F)cc1 [Haloperidol (1), 4-[4-(4-chlorophenyl)-4-hydroxy-1-piperidinyl]-1-(4-fluorophenyl)-1-butanone, reference compound]
[1]
  inhibition of apomorphine induced climbing (dopamine receptor antagonist in vivo): acting as a dopamine receptor antagonist

## O=C(CCCN1CCC(O)(c2ccc(Cl)cc2)C1)c1ccc(F)cc1 (racemic) [Analog [A] (2), 4-[3-hydroxy-3-(4′-chlorophenyl)pyrrolidinyl]-4″-fluorobutyrophenone]
[1]; all four doses
  statistical comparison of effects in climbing test (t-test, p<0.05): significantly different from compound 1 but non significantly different from compound 3
[1]; listed as 2
  inhibition of apomorphine induced climbing (dopamine receptor antagonist in vivo): could inhibit apormophine induced climbing in mice
[1]; listed as drawing 7
  inhibition of apomorphine induced climbing (dopamine receptor antagonist in vivo): act as antidopaminergics in vivo
[2]
  statistical comparison of effects in catalepsy bar test (t-test, p<0.05): statistically similar to clozapine's
[2]; listed as the analog
  statistical comparison of effects in catalepsy bar test (t-test, p<0.05): significantly different from compound 1 but non significantly different from compound 3
[2]; listed as 2
  catalepsy (EPS) in bar test: no catalepsy
[2]; listed as drawing 7
  catalepsy (EPS) in bar test: much less severe EPS (manifested as catalepsy in animal models) than haloperidol

## 8-chloro-1-(4-methyl-1-piperazinyl)-5H-dibenzo[b,e]-[1,4]-diazepine [Clozapine (3), reference compound]
[1]
  inhibition of apomorphine induced climbing (dopamine receptor antagonist in vivo): acting as a dopamine receptor antagonist
